Assay results reported in article PMC5291759 (Bioorganic & medicinal chemistry, 2016).
“Also recorded” adds a separate entry of the source. Read-outs that look alike come from different tables or passages of the source.

Key:
Lmna^H222P/H222P mice [1] = conditions: cited from earlier work
HT-29 cells = assay: Anti-proliferative activity on HT-29 cells; format: cell-based; conditions: HT-29 anti-proliferative IC50
[2] = tested on: ERK1/2 phosphorylation in HEK-293 cells; assay: Phosphorylated ERK1/2 immunoblot in cultured HEK-293 cells; format: cell-based; conditions: 1 µM to 0.001 µM, 24 h
ERK1/2 phosphorylation = assay: Phosphorylated ERK1/2 relative to total ERK1/2 in tissues of treated mice; format: in vivo, Lmna^H222P/H222P mice; conditions: six weeks
Lmna^H222P/H222P mice [3] = assay: Quantitative real-time RT-PCR of Nppa and Myl7 mRNA in hearts; format: in vivo
Lmna^H222P/H222P mice [4] = assay: Cardiac fibrosis score; format: in vivo
Lmna^H222P/H222P mice [5] = assay: Serum creatine phosphokinase activity; format: in vivo
Lmna^H222P/H222P mice [6] = assay: Forelimb grip fatigue index; format: in vivo; conditions: 6 mg/kg/day
Lmna^H222P/H222P mice [7] = assay: Histology of quadriceps muscle; format: in vivo; conditions: placebo 3 of 6
Lmna^H222P/H222P mice [8] = format: in vivo; conditions: for Amylase (serum): 6 weeks, mean ± standard error, n = 10
Lmna^H222P/H222P mice [9] = format: in vivo; conditions: 6 weeks

COc1cccc(-c2cc(=O)c3ccccc3o2)c1N [PD98059]
effect on left ventricular and skeletal muscle function and survival (Lmna^H222P/H222P mice [1]): beneficial effect on left ventricular and skeletal muscle function and prolongs survivial

O=S1(=O)Nc2c(cc(F)c(F)c2Nc2ccc(I)cc2F)OCC(O)C(O)CC12CC2 (stereo not drawn) [compound 8]
potency of fast moving isomer compared to the slow moving one (HT-29 cells): approximately 25 fold
ERK1/2 phosphorylation [2]: essentially abolished ERK1/2 phosphorylation
phosphorylated ERK1/2 relative to total ERK1/2 in heart (ERK1/2 phosphorylation; 3 mg/kg/day oral gavage): significant decreases
phosphorylated ERK1/2 relative to total ERK1/2 in liver (ERK1/2 phosphorylation; 3 mg/kg/day oral gavage): significant decreases
phosphorylated ERK1/2 relative to total ERK1/2 in quadriceps muscle (ERK1/2 phosphorylation; 3 mg/kg/day oral gavage): only the higher dose produced a significant decrease
phosphorylated ERK1/2 relative to total ERK1/2 in heart (ERK1/2 phosphorylation; 6 mg/kg/day oral gavage): significant decreases
phosphorylated ERK1/2 relative to total ERK1/2 in liver (ERK1/2 phosphorylation; 6 mg/kg/day oral gavage): significant decreases
phosphorylated ERK1/2 relative to total ERK1/2 in quadriceps muscle (ERK1/2 phosphorylation; 6 mg/kg/day oral gavage): significant decrease
cardiac Nppa mRNA compared to placebo (Lmna^H222P/H222P mice [3]; 3 mg/kg/day): significantly reduced
cardiac Myl7 mRNA compared to placebo (Lmna^H222P/H222P mice [3]; 6 mg/kg/day): significantly decreased
cardiac Nppa mRNA compared to placebo (Lmna^H222P/H222P mice [3]; 6 mg/kg/day): significantly reduced
cardiac fibrosis score (grade 0-4) compared to placebo (Lmna^H222P/H222P mice [4]; 3 mg/kg/day): statistically significant decreases in fibrosis
cardiac fibrosis score (grade 0-4) compared to placebo (Lmna^H222P/H222P mice [4]; 6 mg/kg/day): statistically significant decreases in fibrosis
serum creatine phosphokinase activity compared to placebo (Lmna^H222P/H222P mice [5]; 3 mg/kg/day): but not 3 mg/kg/day of 8 significantly reduced
serum creatine phosphokinase activity compared to placebo (Lmna^H222P/H222P mice [5]; 6 mg/kg/day): significantly reduced
forelimb grip fatigue index compared to placebo (Lmna^H222P/H222P mice [6]): significantly reduced
quadriceps samples with internally nucleated fibers (Lmna^H222P/H222P mice [7]; 3 mg/kg/day): 1 of 5
quadriceps samples with internally nucleated fibers (Lmna^H222P/H222P mice [7]; 6 mg/kg/day): 0 of 5
Amylase (serum) (Lmna^H222P/H222P mice [8]; 3 mg/kg/day): 1,372 ± 282.9 U/L
Amylase (serum) (Lmna^H222P/H222P mice [8]; 6 mg/kg/day): 1,086 ± 40.18 U/L
liver, kidney or pancreatic toxicity by serum chemistry (Lmna^H222P/H222P mice [8]; 6 weeks of treatment at a dose up to 6 mg/kg/day): did not produce significant liver, kidney or pancreatic toxicity
Kidney histology, individual sample (Lmna^H222P/H222P mice [9]; 3 mg/kg/day): Normal
Liver histology, individual sample (Lmna^H222P/H222P mice [9]; 3 mg/kg/day): Normal; also recorded: Slightly greater vacuolation in some zones; similar to 7606 but milder; could be preparation artifact
Spleen histology, individual sample (Lmna^H222P/H222P mice [9]; 3 mg/kg/day): Mildly increased number of hemosiderin-laden macrophages suggestive of old hemorrhage Somewhere; also recorded: Normal (hemosiderin-laden macrophages present but at approximately normal levels)
Kidney histology, individual sample (Lmna^H222P/H222P mice [9]; 6 mg/kg/day): Some lymphocytic inflammation around the renal pelvis (around the ureter) and occasional medium-sized arteries; more inflammation than 7623 and 7622; also recorded: Mostly normal but some mild lymphocytic inflammation around small arteries with occasional hemosiderin-laden macrophages
Liver histology, individual sample (Lmna^H222P/H222P mice [9]; 6 mg/kg/day): Occasional hemosiderin laden macrophages. Some portal triads have mild lymphocytic inflammation; significance uncertain; also recorded: Normal; also recorded: Some intracellular vacuolation in some zones; similar to 7612; could be preparation artifact
Spleen histology, individual sample (Lmna^H222P/H222P mice [9]; 6 mg/kg/day): Area of necrosis consistent with splenic infarct; moderately increased number of hemosiderin-laden macrophages suggestive of hemorrhage old somewhere; also recorded: Normal
liver, kidney or spleen histopathology, overall (Lmna^H222P/H222P mice [9]; 3 or 6 mg/kg/day): no consistent or specific abnormalities in liver, kidney or spleen histopathology

Cn1cnc2c(F)c(Nc3ccc(Br)cc3Cl)c(C(=O)NOCCO)cc21 [selumetinib]
effect on left ventricular and skeletal muscle function and survival (Lmna^H222P/H222P mice [1]): beneficial effect on left ventricular and skeletal muscle function and prolongs survivial
